Results as given in patent publication US8822754B2, “Ecdysone receptor-based inducible gene expression system” (Intrexon Corporation, priority 2000, dated 2014).

How the values were obtained:
VP16CfEcR = experiment: Transactivation of reporter genes through switch 1.7 in 293 cells; format: cell-based, Choristoneura fumiferana; conditions: switch 1.7 VP16CfEcR, pEcRELuc
Experimental: Six ecdysone response elements (“EcRE”; SEQ ID NO: 59) from the hsp27 gene were placed upstream of the promoter and a luciferase gene (SEQ ID NO: 57). This switch most probably uses endogenous RXR.
(§1) The same procedures described for CHO were followed for 293 cells except that the cells were plated in biocoated plates to avoid clumping.
(§2) Cells were harvested 24-48 hr after adding ligands. […] Twenty μl of lysate was assayed.

GAL4RXR + VP16CfEcR = experiment: Transactivation of reporter genes through switch 1.3 in CV1 cells; format: cell-based, Choristoneura fumiferana; conditions: switch 1.3 GAL4RXR + VP16CfEcR, pGAL4RELuc
Experimental: (§3) The same procedures described for NIH3T3 cells were followed for CV1 cells
as §2

GAL4EcR + VP16RXR [1] = experiment: Transactivation of reporter genes through switch 1.1 in CV1 cells; format: cell-based, Choristoneura fumiferana; conditions: switch 1.1 GAL4EcR + VP16RXR, pGAL4RELuc
Experimental: as §3, §2

GAL4EcR + VP16RXR [2] = experiment: Transactivation of reporter genes through switch 1.1 in CHO cells; format: cell-based, Choristoneura fumiferana; conditions: switch 1.1 GAL4EcR + VP16RXR, pGAL4RELuc
Experimental: (§4) The cells were harvested and reporter activity was assayed.
as §2

GAL4CfEcRVP16 = experiment: Transactivation of reporter genes through switch 1.6 in CHO cells; format: cell-based, Choristoneura fumiferana; conditions: switch 1.6 GAL4CfEcRVP16, pGAL4RELuc
Experimental: This construct was prepared so that both the GAL4 DNABD and the VP16AD were placed on the same molecule. GAL4DNABD (SEQ ID NO: 41) and VP16AD (SEQ ID NO: 45) were fused to CfEcRDEF (SEQ ID NO: 3) at N- and C-termini respectively.
as §4, §2

GAL4RXR + VP16DmEcR = target: T1, GAL4RXR + VP16DmEcR (Drosophila melanogaster, UniProt P34021); experiment: Transactivation of reporter genes through switch 1.4 in 3T3 cells; format: cell-based; conditions: switch 1.4 GAL4RXR + VP16DmEcR, pGAL4RELuc
T1 sequence (P34021 254-878): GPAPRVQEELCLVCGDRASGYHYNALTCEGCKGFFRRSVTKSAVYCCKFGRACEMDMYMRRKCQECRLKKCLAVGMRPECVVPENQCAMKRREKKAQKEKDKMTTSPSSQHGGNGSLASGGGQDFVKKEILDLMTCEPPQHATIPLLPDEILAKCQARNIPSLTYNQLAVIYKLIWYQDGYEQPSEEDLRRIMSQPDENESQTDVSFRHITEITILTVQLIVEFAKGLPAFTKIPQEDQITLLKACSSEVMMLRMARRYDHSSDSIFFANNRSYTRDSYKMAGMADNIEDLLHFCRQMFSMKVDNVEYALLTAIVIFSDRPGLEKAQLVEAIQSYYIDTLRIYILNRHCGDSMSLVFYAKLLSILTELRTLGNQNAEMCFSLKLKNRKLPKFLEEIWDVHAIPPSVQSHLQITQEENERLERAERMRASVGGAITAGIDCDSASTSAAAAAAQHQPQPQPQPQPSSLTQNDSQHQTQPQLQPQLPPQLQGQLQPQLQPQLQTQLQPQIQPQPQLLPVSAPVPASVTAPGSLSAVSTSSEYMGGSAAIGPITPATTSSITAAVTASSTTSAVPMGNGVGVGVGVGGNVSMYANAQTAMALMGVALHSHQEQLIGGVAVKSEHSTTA
T1 sequence (P28700 206-467 partner limits assumed): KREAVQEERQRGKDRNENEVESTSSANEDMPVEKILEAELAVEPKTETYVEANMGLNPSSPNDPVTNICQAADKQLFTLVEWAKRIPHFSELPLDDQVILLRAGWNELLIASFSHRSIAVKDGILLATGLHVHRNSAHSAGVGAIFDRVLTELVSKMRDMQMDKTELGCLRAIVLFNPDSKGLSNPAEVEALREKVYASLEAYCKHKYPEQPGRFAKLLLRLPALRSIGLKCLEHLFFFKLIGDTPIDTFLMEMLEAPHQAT
Experimental: This construct was prepared in the same way as switch 1.3 except CfEcRCDEF was replaced with DmEcRCDEF (SEQ ID NO: 6).
The cells were plated when they reached 50% confluency.
as §2

DmVgRXR + MmRXR = target: T2, DmVgRXR + MmRXR (Drosophila melanogaster, UniProt P34021, E282G/G283S/G286V); experiment: Transactivation of reporter genes through switch 1.8 in CV1 cells; format: cell-based; conditions: switch 1.8 DmVgRXR + MmRXR, pIND(SP1)LacZ
T2 construct: host or cells: CHO, NIH3T3, 293 or CV1 cells (one cell line per assay)
Description: This system was purchased from Invitrogen Corp., Carlsbad, Calif. It comprises a Drosophila melanogaster EcR (“DmEcR”) with a modified DNABD fused to VP16AD and placed under the control of a CMV promoter (SEQ ID NO: 60). Full length MmRXR (SEQ ID NO: 53) was placed under the control of the RSV promoter (SEQ ID NO: 61). The reporter, pIND(SP1)LacZ, contains five copies of a modified ecdysone response element (“EcRE”, E/GRE), three copies of an SP1 enhancer, and a minimal heat shock promoter, all of which were placed upstream to the LacZ reporter gene.
as §3, §2

CfVgRXR [3] = experiment: Transactivation of reporter genes through switch 1.10 in CV1 cells; format: cell-based, Choristoneura fumiferana; conditions: switch 1.10 CfVgRXR, pIND(SP1)LacZ
Experimental: (§5) This example was prepared in the same way as switch 1.9 except MmRXR (SEQ ID NO: 53) was deleted.
as §3, §2

CfVgRXR [4] = experiment: Transactivation of reporter genes through switch 1.10 in 293 cells; format: cell-based, Choristoneura fumiferana; conditions: switch 1.10 CfVgRXR, pIND(SP1)LacZ
Experimental: as §5, §1, §2

CfEcR = experiment: Comparison of switches in the mammalian cell lines tested (Tables 1-4); format: cell-based, Choristoneura fumiferana; conditions: see Tables 1-4
Experimental: Several commercially available lipofactors as well as electroporation methods were evaluated and the best conditions for transfection of each cell line were developed. CHO, NIH3T3, 293 and CV1 cells were grown to 60% confluency. DNAs corresponding, to the various switch constructs outlined in Examples 1.1 through 1.10 were transfected into CHO cells, NIH3T3 cells, 293 cells, or CV1 cells as follows.
as §2

T2 sequence (P34021 whole entry E282G/G283S/G286V): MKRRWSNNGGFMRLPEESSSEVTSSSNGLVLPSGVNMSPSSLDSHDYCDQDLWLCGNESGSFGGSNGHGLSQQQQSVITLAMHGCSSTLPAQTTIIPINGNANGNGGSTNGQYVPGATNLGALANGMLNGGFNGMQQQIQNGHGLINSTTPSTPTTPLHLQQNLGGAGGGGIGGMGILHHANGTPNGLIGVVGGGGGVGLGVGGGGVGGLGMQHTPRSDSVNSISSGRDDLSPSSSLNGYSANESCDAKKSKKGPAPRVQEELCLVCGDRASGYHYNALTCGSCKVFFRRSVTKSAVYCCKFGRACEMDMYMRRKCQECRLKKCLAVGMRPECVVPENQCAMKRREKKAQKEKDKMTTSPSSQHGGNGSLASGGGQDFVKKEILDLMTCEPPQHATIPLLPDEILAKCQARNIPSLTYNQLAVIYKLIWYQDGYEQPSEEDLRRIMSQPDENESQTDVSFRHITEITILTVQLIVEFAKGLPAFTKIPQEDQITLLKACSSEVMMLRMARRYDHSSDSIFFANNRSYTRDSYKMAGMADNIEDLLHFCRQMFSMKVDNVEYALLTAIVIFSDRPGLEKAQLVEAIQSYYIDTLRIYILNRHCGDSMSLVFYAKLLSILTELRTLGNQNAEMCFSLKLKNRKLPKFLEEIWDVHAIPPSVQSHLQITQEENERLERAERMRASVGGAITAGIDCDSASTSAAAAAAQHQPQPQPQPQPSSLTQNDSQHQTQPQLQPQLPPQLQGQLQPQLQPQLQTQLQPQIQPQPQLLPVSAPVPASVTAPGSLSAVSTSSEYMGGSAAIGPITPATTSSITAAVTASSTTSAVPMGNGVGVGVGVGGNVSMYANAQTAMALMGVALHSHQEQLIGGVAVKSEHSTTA
T2 sequence (P28700 whole entry, further chain): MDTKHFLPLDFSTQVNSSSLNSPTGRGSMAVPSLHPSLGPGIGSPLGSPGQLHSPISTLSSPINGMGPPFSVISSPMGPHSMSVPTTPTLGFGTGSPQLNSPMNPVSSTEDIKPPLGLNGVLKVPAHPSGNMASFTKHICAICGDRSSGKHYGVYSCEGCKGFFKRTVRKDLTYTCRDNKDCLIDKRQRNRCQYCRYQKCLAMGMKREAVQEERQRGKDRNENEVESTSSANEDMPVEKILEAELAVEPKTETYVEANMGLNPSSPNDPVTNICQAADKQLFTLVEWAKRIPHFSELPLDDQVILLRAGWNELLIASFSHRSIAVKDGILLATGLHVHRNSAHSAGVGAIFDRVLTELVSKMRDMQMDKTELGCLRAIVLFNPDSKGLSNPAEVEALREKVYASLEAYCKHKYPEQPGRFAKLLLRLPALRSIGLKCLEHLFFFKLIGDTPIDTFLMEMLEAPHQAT

## CCc1c(OC)cccc1C(=O)NN(C(=O)c1cc(C)cc(C)c1)C(C)(C)C [N-(2-ethyl-3-methoxybenzoyl)-N′-(3,5-dimethylbenzoyl)-N′-tert-butylhydrazine]
VP16CfEcR
  Mean Fold Activation Through N-(2-ethyl-3-methoxybenzoyl)-N′-(3,5-dimethylbenzoyl)-N′-t-butylhydrazine: 2 fold
GAL4RXR + VP16CfEcR
  Mean Fold Activation Through N-(2-ethyl-3-methoxybenzoyl)-N′-(3,5-dimethylbenzoyl)-N′-t-butylhydrazine: 25 fold
GAL4EcR + VP16RXR [1]
  Mean Fold Activation Through N-(2-ethyl-3-methoxybenzoyl)-N′-(3,5-dimethylbenzoyl)-N′-t-butylhydrazine: 279 fold
GAL4EcR + VP16RXR [2]
  Mean Fold Activation with 50 μM N-(2-ethyl-3-methoxybenzoyl)-N′-(3,5-dimethylbenzoyl)-N′-t-butylhydrazine: 267 fold
GAL4CfEcRVP16
  Mean Fold Activation with 50 μM N-(2-ethyl-3-methoxybenzoyl)-N′-(3,5-dimethylbenzoyl)-N′-t-butylhydrazine: 9 fold
GAL4RXR + VP16DmEcR
  Mean Fold Activation Through N-(2-ethyl-3-methoxybenzoyl)-N′-(3,5-dimethylbenzoyl)-N′-t-butylhydrazine: 269 fold
DmVgRXR + MmRXR
  Mean Fold Activation Through N-(2-ethyl-3-methoxybenzoyl)-N′-(3,5-dimethylbenzoyl)-N′-t-butylhydrazine: 12 fold
CfVgRXR [3]
  Mean Fold Activation Through N-(2-ethyl-3-methoxybenzoyl)-N′-(3,5-dimethylbenzoyl)-N′-t-butylhydrazine: 1 fold
CfVgRXR [4]
  Mean Fold Activation Through N-(2-ethyl-3-methoxybenzoyl)-N′-(3,5-dimethylbenzoyl)-N′-t-butylhydrazine: 3 fold
CfEcR
  potency as activators of CfEcR as compared to DmEcR: more potent activators of CfEcR
